This note sets out measurements from publication PMC8220418, “A fragment-based approach to assess the ligandability of ArgB, ArgC, ArgD and ArgF in the L-arginine biosynthetic pathway of Mycobacterium tuberculosis” (Computational and Structural Biotechnology Journal, 2021).

The subject of the assay is M. tuberculosis ΔargB. It is filed as cell-based, Mycobacterium tuberculosis.
For the molecule `O=c1cc(C(F)(F)F)[nH]c2c(C(F)(F)F)cccc12` [NMR711, 2,8-bis(trifluoromethyl)-1H-quinolin-4-one], the “Inhibitory activity on growth with arginine present” value is listed as “inhibitory”. Then `NC(N)=NOCC[C@H](N)C(=O)O` [L-canavanine, reference compound], with “no inhibitory activity”; and `O=c1cc[nH]c2c(C(F)(F)F)cccc12` [NMR446, 8-(trifluoromethyl)-1H-quinolin-4-one], with “no inhibitory activity”.
